The source of these data is PubChem BioAssay (NCI).

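Interpolation was linear, between the two tested concentrations surrounding the appropriate level; five concentrations were tested over 48 hours in 96-well plates. GI50 is the concentration that inhibits growth by half. TGI: total growth inhibition.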

What all share (test): NCI tumour cell line growth inhibition, 48 h
For test [1], the system named is UACC-62 melanoma.
Test [2] relates to T-47D breast.
The test system of test [3] is MALME-3M melanoma.
The test system of test [4] is CCRF-CEM leukemia.
For test [5], the system named is RPMI-8226 leukemia.
The test system of test [6] is LOX IMVI melanoma.
Test [7] relates to NCI-H460 lung.
In test [8] the test system is KM12 colon.
In test [9] the test system is SF-268 CNS.
For test [10], the system named is NCI-H226 lung.

Turning to `O=C(/C=C/c1ccco1)Nc1ncc(Cc2cccc(C(F)(F)F)c2)s1`, the GI50 in [1] was 0.0545 µM; in test [2], 0.12 µM; in test [3] it was 0.125 µM; in test [4], 0.0682 µM; in [5], 0.291 µM; in [6], 0.0572 µM. For the same compound, the GI50 in test [7] was 0.0401 µM; in test [8] it was 0.0432 µM; in test [9], 0.167 µM; in test [10], 0.336 µM. Moreover, the TGI in test [1] was 24.6 µM; in test [2] it was > 92.2 µM; in test [3] it was 10.6 µM; in test [4], > 47.8 µM; in test [5], 10.9 µM; in test [6] it was 2.92 µM. For the same compound, the TGI in test [7] is 9.59 µM; in test [8], > 31.8 µM; in test [9], > 44.2 µM.

On to `CCOC(=O)Nc1ccc2nc(N3CCCCCC3)sc2c1`, for which the GI50 in [1] is 1.45 µM; in test [2], 4.7 µM; in test [3], 1.35 µM; in test [4], 1.97 µM; in test [5], 3.33 µM; in test [6], 2.16 µM. Moreover, the GI50 in [7] was 1.4 µM; in test [8], 0.661 µM; in [9], 8.25 µM; in [10], 12.3 µM. Also, the TGI in [1] is > 100 µM; in test [2] it was > 84.3 µM; in test [3], 55.7 µM; in test [4], > 100 µM; in [5] it was 26.3 µM; in [6], > 100 µM. Moreover, the TGI is > 38.7 µM in test [7], > 57.5 µM in test [8], > 100 µM in test [9] and > 68 µM in test [10].

Take `C[C@]12CCCN1CC1=NNC(=O)c3cc(F)cc4[nH]c2c1c34`: the GI50 in test [1] is 12.7 µM; in test [2], 20.6 µM; in test [3] it was 28.9 µM; in test [4], 22.5 µM; in test [5], 19.1 µM; in test [6], 7.64 µM. In addition, the GI50 in [7] is 11.5 µM; in test [8], 9.6 µM; in [9] it was 19 µM; in [10], 7.84 µM. The TGI in test [1] stood at 28.3 µM; in [2], 91.9 µM; in [3], 70.5 µM; in [4], 81 µM; in test [5] it was 52.3 µM; in [6], 60.3 µM. In addition, the TGI in test [7] was > 100 µM; in test [8] it was 30.3 µM; in test [9], 61.4 µM; in test [10], 67.7 µM.

On to `CS(=O)(=O)c1ccc2c(c1)C(=O)c1c-2n(CCCBr)c(=O)c2cc([N+](=O)[O-])ccc12`, for which the GI50 in [1] is 4.26 µM; in [2] it was 4.88 µM; in [3], 69.6 µM; in [4], 0.758 µM; in [5], 1.68 µM; in test [6], 5.77 µM. Further, the GI50 in test [7] is 0.718 µM; in test [8], > 100 µM; in test [9], 9.59 µM; in test [10], 26.5 µM. The TGI in [1] was > 100 µM; in test [2], > 100 µM; in test [3] it was > 100 µM; in [4], 30.7 µM; in test [5] it was 42.8 µM; in [6], > 100 µM. Besides, the TGI in test [7], in [8], in [9] and in test [10] was > 100 µM each time.

On to `Nc1c(C(=O)c2ccc(C#CCN3CCOCC3)cc2)cnn1-c1ccc(F)cc1`, for which the GI50 in test [1], in [2], in test [3], in [4], in test [5] and in test [6] was > 25 µM each time. Besides, the GI50 in [7], in test [8], in test [9] and in test [10] was > 25 µM in each case. The TGI in [1], in test [2], in test [3], in [4], in test [5] and in [6] was > 25 µM throughout. In addition, the TGI in test [7], in test [8], in test [9] and in test [10] was > 25 µM throughout.

On to `O=C1CC(C(=O)O)Cc2c(Br)ccc(O)c21` (centres undefined), for which the TGI in test [1], in test [2], in test [3], in test [4], in test [5] and in test [6] was > 100 µM each time. Moreover, the TGI in [7], in [8], in test [9] and in [10] was > 100 µM each time.

Regarding `O=C(COc1cccc(/C=C2\COc3ccccc3C2=O)c1)c1ccccc1`, the GI50 in test [1] was 3 µM; in [2], 2.53 µM; in test [3] it was 13.1 µM; in test [4], 1.98 µM; in test [5], 1.84 µM; in test [6] it was 1.66 µM. Besides, the GI50 in test [7] was 12.3 µM; in test [8], 1.92 µM; in test [9] it was 3.23 µM; in test [10] it was 12.3 µM. Moreover, the TGI in [1] turned out to be 10.2 µM; in [2], 6.04 µM; in test [3], 28.2 µM; in test [4], 7.62 µM; in test [5], 4.85 µM; in test [6], 3.12 µM. In addition, the TGI in test [7] was 24.9 µM; in test [8], 3.65 µM; in [9], 10.2 µM; in test [10], 25.4 µM.

On to `Nc1nc(=S)c2ncn(C3OC(CO)C(O)C3O)c2[nH]1` (centres undefined), for which the GI50 in test [1] is 0.446 µM; in test [2], 0.511 µM; in test [3], 1.2 µM; in test [4] it was 0.318 µM; in test [5], 0.322 µM; in test [6], 0.301 µM. For the same compound, the GI50 in [7] is 0.571 µM; in test [8], 1.79 µM; in test [9] it was 0.755 µM; in test [10], 3.5 µM. Also, the TGI is 5.67 µM in [1]; 83.3 µM in [2]; 31.1 µM in test [3]; > 68.2 µM in test [4]; 2.29 µM in test [5]; 11.8 µM in test [6]. The TGI is 12.2 µM in test [7], > 27.8 µM in test [8], > 100 µM in test [9] and > 100 µM in [10].
